For one assay, the system named is NCI-H292 cells. In words: Cytotoxicity of metabolites, MTT assay, NCI-H292. Type of assay: cell-based, human. Here is the method: NCI-H292: human mucoepidermoid lung carcinoma cells, ATCC-CRL-1848, standard medium: RPMI 1640 (Biochrom; #FG1215, stab. glutamine)+10% FCS (Biochrom; #S0415), TWEAKR-positive, EGFR-positive.
The cells were cultivated according to the standard method using the growth media listed under C-1. The test is carried out by detaching the cells with a solution of Accutase in PBS (Biochrom AG #L2143), pelleting, resuspending in culture medium, counting and sowing into a 96-well culture plate with white bottom (Costar #3610) (NCI H292: 2500 cells/well, KPL-4: 1200 cells/well, LoVo: 1000 cells/well in a total volume of 100 μl). The cells were then incubated in an incubator at 37° C. and 5% carbon dioxide. After 48 h, the medium was replaced. The metabolites in 10 μl of culture medium in concentrations from 10^−5M to 10^−13M were then pipetted to the cells (in triplicate), and the assay was then incubated in an incubator at 37° C. and 5% carbon dioxide. […] To this end, the MTT reagent was incubated with the cells for 4 h, followed by lysis of the cells overnight by addition of the detergent. The dye formed was detected at 570 nm (Infinite M1000 pro, Tecan). The measured data were used to calculate the IC50 of the growth inhibition using the DRC (dose response curve). […]
(Tetrazolium assays rely on reduction of a dye to a coloured formazan, in cell work by metabolically active cells.)

The target of a further assay is T1, TWEAKR (Homo sapiens, UniProt Q9NP84).
T1 construct: endogenous in cells; host or cells: HT29 (also WiDr, A253, NCI-H322, 786-O)
T1 sequence (Q9NP84 28-129): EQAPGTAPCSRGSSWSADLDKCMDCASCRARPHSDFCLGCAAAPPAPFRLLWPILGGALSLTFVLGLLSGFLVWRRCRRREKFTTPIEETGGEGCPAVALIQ
In words: Agonistic activity of anti-TWEAKR antibodies. Format: cell-based. The text has this:
In this regard, one embodiment of the invention is the provision of antibodies or antigen-binding antibody fragments thereof binding specifically to a TWEAKR at a new epitope, distinguished by selective binding to aspartate (D) at position 47 (D47) of TWEAKR (SEQ ID NO: 169; see also FIG. 1). The identified dependencies of certain TWEAKR amino acids for antibody interaction correlate with the agonistic activity determined for these antibodies. […] Thus, TWEAK binds to a similar, but distinguishable binding site (FIG. 7). Accordingly, the antibodies of the present invention, which show strong agonistic activity, bind to a new epitope (as a function of D47) which is associated with very strong agonistic activity.

The values that follow come from patent publication US10485880B2, “Antibody-drug conjugates (ADCs) of KSP inhibitors with aglycosylated anti-TWEAKR antibodies” (Bayer Pharma Aktiengesellschaft, priority 2015, dated 2019).

The term IC50 denotes the concentration needed to halve the response being measured.

As to `CC(C)(C)[C@H](c1cc(-c2cc(F)ccc2F)cn1Cc1ccccc1)N(CC[C@H](N)C(=O)NCCNC(=O)CNC(=O)CC(SC[C@H](N)C(=O)O)C(=O)O)C(=O)CO` (stereo partly drawn) [Example M2-1, 4-[(2-{[2-({(2S)-2-Amino-4-[{(1R)-1-[1-benzyl-4-(2,5-difluorophenyl)-1H-pyrrol-2-yl]-2,2-dimethylpropyl}(glycoloyl)amino]butanoyl}amino)ethyl]amino}-2-oxoethyl)amino]-2-{[(2R)-2-amino-2-carboxyethyl]sulphanyl}-4-oxobutanoic acid/trifluoroacetic acid (1:1)], the IC50 in the assay on NCI-H292 cells (96 h incubation) was 265 nM.

Consider `CC(C)(C)[C@H](c1cc(-c2cc(F)ccc2F)cn1Cc1ccccc1)N(CCCN)C(=O)CO` [Example M9, N-(3-Aminopropyl)-N-{(1R)-1-[1-benzyl-4-(2,5-difluorophenyl)-1H-pyrrol-2-yl]-2,2-dimethylpropyl}-2-hydroxyacetamide], for which the IC50 in the assay with NCI-H292 cells (Homo sapiens, NCI-H292, 96 h incubation) came out at 0.924 nM.

B1: PLD-192: "PLD-192 shows moderate agonistic activity and binds as a function of R56 to the cysteine-rich domain, but opposite of the TWEAK ligand site" (antibody, chains of the INN, looked up, V domains shown)
VH: EVQLVESGGGLVQPGGSLRLSCAASGFTFSSYWMSWVRQAPGKGLEWVAEIRLKSDNYATHYAESVKGRFTISRDDSKNSLYLQMNSLRAEDTAVYYCTGYYADAMDYWGQGTLVTVSS
VL: DIQMTQSPSSLSASVGDRVTITCRASQSVSTSSYSYMHWYQQKPGKAPKLLIKYASNLESGVPSRFSGSGSGTDFTLTISSLQPEDFATYYCQHSWEIPYTFGGGTKVEIK
With B1, in the assay with TWEAKR, the Agonistic activity entry is listed as “moderate agonistic activity”.
